PubChem BioAssay (NCI)
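Compound exposure: 48 hours, 5 concentrations, 96-well plates. Abbreviation: GI50, concentration required for 50% inhibition of growth. TGI: concentration producing complete growth inhibition.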

Tests used:
Assay in all cases: NCI anticancer screen, dose series, 48 h
786-0 renal = system: 786-0 renal
A498 renal = system: A498 renal
A549 NSCLC = system: A549 NSCLC
ACHN renal = system: ACHN renal
BT-549 breast = system: BT-549 breast
CAKI-1 renal = system: CAKI-1 renal
CCRF-CEM leukemia = system: CCRF-CEM leukemia
COLO 205 colon = system: COLO 205 colon
DU-145 prostate = system: DU-145 prostate
EKVX NSCLC = system: EKVX NSCLC
HCC-2998 colon = system: HCC-2998 colon
HCT-116 colon = system: HCT-116 colon
HCT-15 colon = system: HCT-15 colon
HL-60(TB) leukemia = system: HL-60(TB) leukemia
HOP-62 NSCLC = system: HOP-62 NSCLC
HOP-92 NSCLC = system: HOP-92 NSCLC
HS 578T breast = system: HS 578T breast
HT29 colon = system: HT29 colon
IGROV1 ovarian = system: IGROV1 ovarian
K-562 leukemia = system: K-562 leukemia
KM12 colon = system: KM12 colon
LOX IMVI melanoma = system: LOX IMVI melanoma
M14 melanoma = system: M14 melanoma
MALME-3M melanoma = system: MALME-3M melanoma
MCF7 breast = system: MCF7 breast
MDA-MB-231 breast = system: MDA-MB-231 breast
MDA-MB-435 = system: MDA-MB-435
MDA-MB-468 breast = system: MDA-MB-468 breast
MOLT-4 leukemia = system: MOLT-4 leukemia
NCI-H226 lung = system: NCI-H226 lung
NCI-H23 lung = system: NCI-H23 lung
NCI-H460 lung = system: NCI-H460 lung
NCI-H522 lung = system: NCI-H522 lung
OVCAR-3 ovarian = system: OVCAR-3 ovarian
OVCAR-4 ovarian = system: OVCAR-4 ovarian
OVCAR-5 ovarian = system: OVCAR-5 ovarian
OVCAR-8 ovarian = system: OVCAR-8 ovarian
PC-3 prostate = system: PC-3 prostate
RPMI-8226 leukemia = system: RPMI-8226 leukemia
RXF 393 renal = system: RXF 393 renal
SF-268 CNS = system: SF-268 CNS
SF-295 CNS = system: SF-295 CNS
SF-539 CNS = system: SF-539 CNS
SK-MEL-2 melanoma = system: SK-MEL-2 melanoma
SK-MEL-28 melanoma = system: SK-MEL-28 melanoma
SK-MEL-5 melanoma = system: SK-MEL-5 melanoma
SK-OV-3 ovarian = system: SK-OV-3 ovarian
SN12C renal = system: SN12C renal
SNB-19 CNS = system: SNB-19 CNS
SNB-75 CNS = system: SNB-75 CNS
SR leukemia = system: SR leukemia
SW-620 colon = system: SW-620 colon
T-47D breast = system: T-47D breast
TK-10 renal = system: TK-10 renal
U251 CNS = system: U251 CNS
UACC-257 melanoma = system: UACC-257 melanoma
UACC-62 melanoma = system: UACC-62 melanoma
UO-31 renal = system: UO-31 renal

Compound CC1CCCCN1CCCNC(=O)N/C(N)=N/c1nc2ccccc2s1 (stereo unspecified) has a GI50 (786-0 renal) of 17.2 µM, a TGI (786-0 renal) of 32.7 µM and a GI50 (A498 renal) of 17 µM. It also gave a TGI (A498 renal) of 38.2 µM, a GI50 (A549 NSCLC) of 21 µM and a TGI (A549 NSCLC) of 57.7 µM. The GI50 (ACHN renal) was 19.1 µM, the TGI (ACHN renal) was 48.1 µM and the GI50 (BT-549 breast) was 16.5 µM. The TGI (BT-549 breast) was 59.3 µM, the GI50 (CAKI-1 renal) was 13.3 µM and the TGI (CAKI-1 renal) was 28 µM. The GI50 (CCRF-CEM leukemia) was 19.6 µM, the TGI (CCRF-CEM leukemia) was 57.8 µM and the GI50 (COLO 205 colon) was 14 µM. The TGI (COLO 205 colon) was 28.2 µM, the GI50 (DU-145 prostate) was 46.7 µM and the TGI (DU-145 prostate) was greater than 100 µM. For the same compound, the GI50 (EKVX NSCLC) was 27.9 µM, the TGI (EKVX NSCLC) was greater than 100 µM and the GI50 (HCC-2998 colon) was 15.2 µM. For the same compound, the TGI (HCC-2998 colon) was 29.2 µM, the GI50 (HCT-116 colon) was 15 µM and the TGI (HCT-116 colon) was 28.9 µM. For the same compound, the GI50 (HCT-15 colon) was 16.4 µM, the TGI (HCT-15 colon) was 33.4 µM and the GI50 (HL-60(TB) leukemia) was 11.5 µM. For the same compound, the TGI (HL-60(TB) leukemia) was 33.8 µM, the GI50 (HOP-62 NSCLC) was 21.3 µM and the TGI (HOP-62 NSCLC) was greater than 100 µM. For the same compound, the GI50 (HOP-92 NSCLC) was 4.96 µM, the TGI (HOP-92 NSCLC) was 41.6 µM and the GI50 (HS 578T breast) was 15.1 µM. For the same compound, the TGI (HS 578T breast) was 50.1 µM, the GI50 (HT29 colon) was 15.3 µM and the TGI (HT29 colon) was 46.2 µM. It also gave a GI50 (IGROV1 ovarian) of 21.3 µM, a TGI (IGROV1 ovarian) of 76.7 µM and a GI50 (K-562 leukemia) of 15.8 µM. For the same compound, the TGI (K-562 leukemia) was 46.7 µM, the GI50 (KM12 colon) was 27 µM and the TGI (KM12 colon) was greater than 100 µM. It also gave a GI50 (LOX IMVI melanoma) of 13.9 µM, a TGI (LOX IMVI melanoma) of 27.7 µM and a GI50 (M14 melanoma) of 15.8 µM. The TGI (M14 melanoma) was 30.5 µM, the GI50 (MALME-3M melanoma) was 13.9 µM and the TGI (MALME-3M melanoma) was 27.1 µM. For the same compound, the GI50 (MCF7 breast) was 15 µM, the TGI (MCF7 breast) was 31.7 µM and the GI50 (MDA-MB-231 breast) was 14.8 µM. For the same compound, the TGI (MDA-MB-231 breast) was 40.7 µM, the GI50 (MDA-MB-435) was 16.2 µM and the TGI (MDA-MB-435) was 30.2 µM. The GI50 (MDA-MB-468 breast) was 14.7 µM, the TGI (MDA-MB-468 breast) was 30.7 µM and the GI50 (MOLT-4 leukemia) was 12.1 µM. The TGI (MOLT-4 leukemia) was 51.9 µM, the GI50 (NCI-H226 lung) was 27.7 µM and the TGI (NCI-H226 lung) was greater than 100 µM. For the same compound, the GI50 (NCI-H23 lung) was 27 µM, the TGI (NCI-H23 lung) was greater than 100 µM and the GI50 (NCI-H460 lung) was 19.1 µM. The TGI (NCI-H460 lung) was 40.6 µM, the GI50 (NCI-H522 lung) was 18.3 µM and the TGI (NCI-H522 lung) was 43.8 µM. For the same compound, the GI50 (OVCAR-3 ovarian) was 24 µM, the TGI (OVCAR-3 ovarian) was greater than 100 µM and the GI50 (OVCAR-4 ovarian) was 63.1 µM. The TGI (OVCAR-4 ovarian) was greater than 100 µM, the GI50 (OVCAR-5 ovarian) was 22.5 µM and the TGI (OVCAR-5 ovarian) was 68.5 µM. For the same compound, the GI50 (OVCAR-8 ovarian) was 27.5 µM, the TGI (OVCAR-8 ovarian) was greater than 100 µM and the GI50 (PC-3 prostate) was 20 µM. The TGI (PC-3 prostate) was greater than 100 µM, the GI50 (RPMI-8226 leukemia) was 17.4 µM and the TGI (RPMI-8226 leukemia) was 51.3 µM. The GI50 (RXF 393 renal) was 10.2 µM, the TGI (RXF 393 renal) was 33.3 µM and the GI50 (SF-268 CNS) was 21.1 µM. It also gave a TGI (SF-268 CNS) of 79.8 µM, a GI50 (SF-295 CNS) of 16 µM and a TGI (SF-295 CNS) of 30.7 µM. The GI50 (SF-539 CNS) was 15.8 µM, the TGI (SF-539 CNS) was 30.1 µM and the GI50 (SK-MEL-2 melanoma) was 16 µM. The TGI (SK-MEL-2 melanoma) was 31.1 µM, the GI50 (SK-MEL-28 melanoma) was 16.6 µM and the TGI (SK-MEL-28 melanoma) was 30.5 µM. For the same compound, the GI50 (SK-MEL-5 melanoma) was 13.3 µM, the TGI (SK-MEL-5 melanoma) was 26.2 µM and the GI50 (SK-OV-3 ovarian) was 19.7 µM. For the same compound, the TGI (SK-OV-3 ovarian) was 89.1 µM, the GI50 (SN12C renal) was 36.7 µM and the TGI (SN12C renal) was greater than 100 µM. The GI50 (SNB-19 CNS) was 29.7 µM, the TGI (SNB-19 CNS) was greater than 100 µM and the GI50 (SNB-75 CNS) was 7.4 µM. It also gave a TGI (SNB-75 CNS) of 55.2 µM, a GI50 (SR leukemia) of 18.7 µM and a TGI (SR leukemia) of 58.5 µM. It also gave a GI50 (SW-620 colon) of 16.2 µM, a TGI (SW-620 colon) of 34.1 µM and a GI50 (T-47D breast) of 15.4 µM. It also gave a TGI (T-47D breast) of 39.6 µM, a GI50 (TK-10 renal) of 20.8 µM and a TGI (TK-10 renal) of 46 µM. The GI50 (U251 CNS) was 17 µM, the TGI (U251 CNS) was 39.3 µM and the GI50 (UACC-257 melanoma) was 15.8 µM. The TGI (UACC-257 melanoma) was 30.7 µM, the GI50 (UACC-62 melanoma) was 16.8 µM and the TGI (UACC-62 melanoma) was 31.7 µM. The GI50 (UO-31 renal) was 10.2 µM and the TGI (UO-31 renal) was 25.2 µM.
